Laboratory results published in US10538555B2, “Macrocyclic inhibitors of the PD-1/PD-L1 and CD80(B7-1)/PD-L1 protein/protein interactions” (BRISTOL-MYERS SQUIBB COMPANY, priority 2014, dated 2020).
Where a SMILES comes first, the peptide text is derived from it. Bridges are numbered along the chain shown (N, C = ends). [ ]: non-standard residue; d: D form. ξ: configuration not given here. Trp(1-CH2COOH) = N[C@@H](Cc1cn(CC(=O)O)c2ccccc12)C(=O)O; Phe(3,4,5-F3) = N[C@@H](Cc1cc(F)c(F)c(F)c1)C(=O)O; Phe(3,4-Cl2) = N[C@@H](Cc1ccc(Cl)c(Cl)c1)C(=O)O; Phe(3,4-F2) = N[C@@H](Cc1ccc(F)c(F)c1)C(=O)O; NMePhe(4-Me) = CN[C@@H](Cc1ccc(C)cc1)C(=O)O; NMePhe(4-F) = CN[C@@H](Cc1ccc(F)cc1)C(=O)O; Phe(4-F) = N[C@@H](Cc1ccc(F)cc1)C(=O)O; d(cisHyp) = O=C(O)[C@H]1C[C@@H](O)CN1; NMeY = CN[C@@H](Cc1ccc(O)cc1)C(=O)O; Hyp = O=C(O)[C@@H]1C[C@@H](O)CN1; NMeF = CN[C@@H](Cc1ccccc1)C(=O)O; dNMeF = CN[C@H](Cc1ccccc1)C(=O)O; dPip(4-aza) = O=C(O)[C@H]1CNCCN1; dHyp = O=C(O)[C@H]1C[C@H](O)CN1; NMehSer = CN[C@@H](CCO)C(=O)O; NMeNle = CCCC[C@H](NC)C(=O)O; hSer = N[C@@H](CCO)C(=O)O; NMeA = CN[C@@H](C)C(=O)O; Orn = NCCC[C@H](N)C(=O)O; dThz = O=C(O)[C@H]1CSCN1; Dab = NCC[C@H](N)C(=O)O; Dap = NC[C@H](N)C(=O)O; ξPip = O=C(O)C1CCCCN1; ξC = NC(CS)C(=O)O; Sar = CNCC(=O)O

Each compound was assayed against T1, Human PD-L1/PD-1 (Homo sapiens, UniProt Q9NZQ7) (assay: HTRF Human PD-L1/PD-1 binding assay (PD-1-Ig/PD-L1-His)). Details: PD-L1-His 10 nM, PD-1-Ig 20 nM; class symbol; read-out: HTRF Human PD-L1/PD-1 Binding Assay IC50 Range.
T1 construct: TVMV protease cleavage site (C); made in house; host or cells: HEK293T cells
Summary of the method: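 Compound preincubated 15 min with PD-L1-His (10 nM final), then PD-1-Ig (20 nM final) added for 15 min in dPBS with 0.1% BSA and 0.05% Tween-20. Detection by Eu-cryptate anti-Ig (1 nM) and APC anti-His (20 nM) after 30 min; 665/620 nm HTRF ratio. Proteins expressed in HEK293T.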

T1 sequence (Q9NZQ7 with tags, fused parts or gaps): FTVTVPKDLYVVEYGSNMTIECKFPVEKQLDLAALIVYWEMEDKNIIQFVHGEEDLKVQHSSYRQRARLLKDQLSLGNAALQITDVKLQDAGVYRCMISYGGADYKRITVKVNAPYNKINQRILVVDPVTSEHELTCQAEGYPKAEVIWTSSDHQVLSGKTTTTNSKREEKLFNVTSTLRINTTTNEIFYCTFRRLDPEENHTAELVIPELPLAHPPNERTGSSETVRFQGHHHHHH

Row | IC50 [µM] | SMILES
1 | 0.001 to 0.0099 | CCCC[C@H]1C(=O)N2C[C@@H](O)C[C@@H]2C(=O)N[C@@H](CC(=O)O)C(=O)N[C@@H](C(C)C)C(=O)N(C)[C@@H](Cc2ccc(F)cc2)C(=O)N[C@@H](CCCN)C(=O)N2CCC[C@@H]2C(=O)N[C@@H](Cc2c[nH]c3ccccc23)C(=O)N[C@@H](Cc2ccc(O)cc2)C(=O)N[C@@H](CCCN)C(=O)N[C@H](C(=O)NCC(N)=O)CSCC(=O)N[C@@H](Cc2cc(F)c(F)c(F)c2)C(=O)N(C)[C@@H](Cc2ccccc2)C(=O)N1C [Example 10120] ({CH2CO}-[Phe(3,4,5-F3)][NMeF][NMeNle][dHyp]DV[NMePhe(4-F)][Orn][dP]WY[Orn]CG-NH2; thioether N-13)
2 | 0.01 to 0.0999 | CCCC[C@H]1C(=O)N(C)CC(=O)N[C@@H](CC(=O)O)C(=O)N[C@@H](C(C)C)C(=O)N(C)[C@@H](Cc2ccccc2)C(=O)N[C@@H](Cc2ccc(O)cc2)C(=O)N(C)CC(=O)N[C@@H](Cc2c[nH]c3ccccc23)C(=O)N[C@@H](Cc2ccc(O)cc2)C(=O)N[C@@H](CC(C)C)C(=O)N[C@H](C(=O)NCC(N)=O)CSCC(=O)N[C@@H](Cc2ccc(Cl)c(Cl)c2)C(=O)N(C)[C@@H](Cc2ccccc2)C(=O)N1C [Example 3246] ({CH2CO}-[Phe(3,4-Cl2)][NMeF][NMeNle][Sar]DV[NMeF]Y[Sar]WYLCG-NH2; thioether N-13)
3 | 0.01 to 0.0999 | CCCC[C@H]1C(=O)N(C)[C@@H](CCCC)C(=O)N[C@@H](CCCN)C(=O)N[C@H](C(=O)NCC(N)=O)CSCC(=O)N[C@@H](Cc2ccc(O)cc2)C(=O)N2CCCCC2C(=O)N[C@@H](CC(=O)O)C(=O)N2CCC[C@H]2C(=O)N[C@@H](Cc2c[nH]cn2)C(=O)N[C@@H](CCC(=O)O)C(=O)N2C[C@H](O)C[C@H]2C(=O)N[C@@H](Cc2c[nH]c3ccccc23)C(=O)N[C@@H](CCN)C(=O)N[C@@H](Cc2c[nH]c3ccccc23)C(=O)N1C (stereo partly drawn) [Example 1531] ({CH2CO}-Y[ξPip]DPHE[Hyp]W[Dab]W[NMeNle][NMeNle][Orn]CG-NH2; thioether N-14)
4 | 0.01 to 0.0999 | CCCC[C@H]1C(=O)N(C)[C@@H](CCCC)C(=O)N[C@@H](CCCN)C(=O)N[C@H](C(=O)NCC(N)=O)CSCC(=O)N[C@@H](Cc2ccc(O)cc2)C(=O)N2CCNC[C@H]2C(=O)N[C@@H](CC(N)=O)C(=O)N2CCC[C@H]2C(=O)N[C@@H](Cc2c[nH]cn2)C(=O)N[C@@H](CC(C)C)C(=O)N2C[C@H](O)C[C@H]2C(=O)N[C@@H](Cc2c[nH]c3ccccc23)C(=O)N[C@@H](CO)C(=O)N[C@@H](Cc2c[nH]c3ccccc23)C(=O)N1C [Example 1535]
5 | 0.001 to 0.0099 | CCCC[C@H]1C(=O)N2C[C@H](O)C[C@@H]2C(=O)N[C@@H](CC(=O)O)C(=O)N[C@@H](C(C)C)C(=O)N(C)[C@H](Cc2ccccc2)C(=O)N[C@@H](CCCN)C(=O)N2C[C@H](O)C[C@@H]2C(=O)N[C@@H](Cc2c[nH]c3ccccc23)C(=O)N[C@@H](Cc2ccc(O)cc2)C(=O)N[C@@H](CCCN)C(=O)N[C@H](C(=O)NCC(N)=O)CSCC(=O)N[C@@H](Cc2ccc(F)c(F)c2)C(=O)N(C)[C@@H](Cc2ccccc2)C(=O)N1C [Example 9309] ({CH2CO}-[Phe(3,4-F2)][NMeF][NMeNle][d(cisHyp)]DV[dNMeF][Orn][d(cisHyp)]WY[Orn]CG-NH2; thioether N-13)
6 | 0.001 to 0.0099 | CCCC[C@H]1C(=O)N(C)[C@@H](CCCC)C(=O)N[C@@H](CN)C(=O)N[C@H](C(=O)NCC(N)=O)CSCC(=O)N[C@@H](Cc2ccc(O)cc2)C(=O)N(C)[C@@H](C)C(=O)N[C@@H](CC(=O)O)C(=O)N2CCC[C@H]2C(=O)N[C@@H](Cc2cnc[nH]2)C(=O)N[C@@H](CCC(N)=O)C(=O)N2C[C@H](O)C[C@H]2C(=O)N[C@@H](Cc2c[nH]c3ccccc23)C(=O)N[C@@H](CCN)C(=O)N[C@@H](Cc2cn(CC(=O)O)c3ccccc23)C(=O)N1C [Example 5238] ({CH2CO}-Y[NMeA]DPHQ[Hyp]W[Dab][Trp(1-CH2COOH)][NMeNle][NMeNle][Dap]CG-NH2; thioether N-14)
7 | 0.01 to 0.0999 | CCCC[C@H]1C(=O)N(C)[C@@H](CCCC)C(=O)N[C@@H](CCCN)C(=O)N[C@H](C(=O)NCC(N)=O)CSCC(=O)N[C@@H](Cc2ccc(OC)cc2)C(=O)N(C)[C@@H](C)C(=O)N[C@@H](CC(N)=O)C(=O)N2CCC[C@H]2C(=O)N[C@@H](Cc2cnc[nH]2)C(=O)N[C@@H](CCCCN)C(=O)N2C[C@H](O)C[C@H]2C(=O)N[C@@H](Cc2c[nH]c3ccccc23)C(=O)N[C@@H](CC(=O)O)C(=O)N[C@@H](Cc2c[nH]c3ccccc23)C(=O)N1C [Example 7128] ({CH2CO}-Y(Me)[NMeA]NPHK[Hyp]WDW[NMeNle][NMeNle][Orn]CG-NH2; thioether N-14)
8 | 0.001 to 0.0099 | CCCC[C@H]1C(=O)N2CCC[C@@H]2C(=O)N[C@@H](CC(=O)O)C(=O)N[C@@H](C(C)C)C(=O)N(C)[C@@H](Cc2ccccc2)C(=O)N[C@@H](CCCN)C(=O)N2CCC[C@@H]2C(=O)N[C@@H](Cc2c[nH]c3ccccc23)C(=O)N[C@@H](Cc2ccc(O)cc2)C(=O)N[C@@H](CCO)C(=O)N[C@H](C(=O)NCC(N)=O)CSCC(=O)N[C@@H](Cc2cc(F)c(F)c(F)c2)C(=O)N(C)[C@@H](Cc2ccccc2)C(=O)N1C [Example 10175] ({CH2CO}-[Phe(3,4,5-F3)][NMeF][NMeNle][dP]DV[NMeF][Orn][dP]WY[hSer]CG-NH2; thioether N-13)
9 | 0.01 to 0.0999 | CCCC[C@H]1C(=O)N2CSC[C@@H]2C(=O)N[C@@H](CC(N)=O)C(=O)N[C@@H](C(C)C)C(=O)N(C)[C@@H](Cc2ccccc2)C(=O)N[C@@H](Cc2ccc(O)cc2)C(=O)N2CCC[C@@H]2C(=O)N[C@@H](Cc2c[nH]c3ccccc23)C(=O)N[C@@H](Cc2ccc(O)cc2)C(=O)N[C@@H](CC(C)C)C(=O)N[C@H](C(=O)NCC(N)=O)CSCC(=O)N[C@@H](Cc2ccccc2)C(=O)N(C)[C@@H](Cc2ccccc2)C(=O)N1C [Example 10073] ({CH2CO}-F[NMeF][NMeNle][dThz]NV[NMeF]Y[dP]WYLCG-NH2; thioether N-13)
10 | 0.001 to 0.0099 | CCCC[C@H]1C(=O)N2C[C@H](O)C[C@@H]2C(=O)N[C@@H](CC(=O)O)C(=O)N[C@@H](C(C)C)C(=O)N(C)[C@@H](Cc2ccccc2)C(=O)N[C@@H](CCC(=O)O)C(=O)N2CCNC[C@@H]2C(=O)N[C@@H](Cc2c[nH]c3ccccc23)C(=O)N[C@@H](Cc2ccc(O)cc2)C(=O)N[C@@H](CCCCN)C(=O)N[C@H](C(=O)NCC(N)=O)CSCC(=O)N[C@@H](Cc2cc(F)c(F)c(F)c2)C(=O)N(C)[C@@H](Cc2ccccc2)C(=O)N1C [Example 10164] ({CH2CO}-[Phe(3,4,5-F3)][NMeF][NMeNle][d(cisHyp)]DV[NMeF]E[dPip(4-aza)]WYKCG-NH2; thioether N-13)
11 | 0.001 to 0.0099 | CCCC[C@H]1C(=O)N(C)[C@@H](CCCC)C(=O)N[C@@H](CC(C)C)C(=O)N[C@H](C(=O)NCC(N)=O)CSCC(=O)N[C@@H](Cc2ccc(O)cc2)C(=O)N(C)[C@@H](C)C(=O)N[C@@H](CC(=O)O)C(=O)N2CCC[C@H]2C(=O)N[C@@H](CN)C(=O)N[C@@H](CCC(=O)O)C(=O)N2C[C@H](O)C[C@H]2C(=O)N[C@@H](Cc2c[nH]c3ccccc23)C(=O)N[C@@H](CCN)C(=O)N[C@@H](Cc2cn(CC(=O)O)c3ccccc23)C(=O)N1C [Example 5180] ({CH2CO}-Y[NMeA]DP[Dap]E[Hyp]W[Dab][Trp(1-CH2COOH)][NMeNle][NMeNle]LCG-NH2; thioether N-14)
12 | 0.01 to 0.0999 | CCCC[C@H]1C(=O)N[C@@H](CC(C)C)C(=O)N[C@H](C(=O)NCC(N)=O)CSCC(=O)N[C@@H](Cc2ccc(O)cc2)C(=O)N(C)[C@@H](C)C(=O)N[C@@H](CC(N)=O)C(=O)N2CCC[C@H]2C(=O)N[C@@H](Cc2c[nH]cn2)C(=O)N[C@@H](CCC(N)=O)C(=O)N2C[C@H](O)C[C@H]2C(=O)N[C@@H](Cc2c[nH]c3ccccc23)C(=O)NCC(=O)N[C@@H](Cc2c[nH]c3ccccc23)C(=O)N(C)[C@@H](CCOC)C(=O)N1C [Example 10137] ({CH2CO}-Y[NMeA]NPHQ[Hyp]WGW[NMehSer](Me)[NMeNle]LCG-NH2; thioether N-14)
13 | 1 to 10 | CCCC[C@H]1C(=O)N[C@@H](CC(N)=O)C(=O)N2CCC[C@H]2C(=O)N[C@@H](CO)C(=O)N[C@@H](CCO)C(=O)N2CCC[C@H]2C(=O)N[C@@H](Cc2c[nH]c3ccccc23)C(=O)N[C@@H](CCCN)C(=O)N[C@@H](Cc2c[nH]c3ccccc23)C(=O)N(C)[C@@H](C)C(=O)N(C)[C@@H](C)C(=O)N[C@@H](CCCNC(=N)N)C(=O)NC(C(=O)NCC(N)=O)CSCC(=O)N[C@@H](Cc2ccc(O)cc2)C(=O)N1C (stereo partly drawn) [Example 10198] ({CH2CO}-Y[NMeNle]NPS[hSer]PW[Orn]W[NMeA][NMeA]R[ξC]G-NH2; thioether N-14)
14 | 0.1 to 0.99 | CCCC[C@H]1C(=O)N2CCC[C@@H]2C(=O)N[C@@H](CC(=O)O)C(=O)N[C@@H](C(C)C)C(=O)N(C)[C@@H](Cc2ccc(C)cc2)C(=O)N[C@@H](CC(=O)O)C(=O)N2CCC[C@@H]2C(=O)N[C@@H](Cc2c[nH]c3ccccc23)C(=O)N[C@@H](Cc2ccc(O)cc2)C(=O)N[C@@H](CC(C)C)C(=O)N[C@H](C(=O)NCC(N)=O)CSCC(=O)N[C@@H](Cc2ccc(F)cc2)C(=O)N(C)[C@@H](Cc2ccccc2)C(=O)N1C [Example 10114] ({CH2CO}-[Phe(4-F)][NMeF][NMeNle][dP]DV[NMePhe(4-Me)]D[dP]WYLCG-NH2; thioether N-13)

Same assay, conditions: PD-L1-His 10 nM, PD-1-Ig 20 nM; read-out: HTRF Human PD-L1/PD-1 Binding Assay IC50

Row | IC50 [µM] | SMILES
15 | 0.0125 | CCCC[C@H]1C(=O)N2C[C@H](O)C[C@@H]2C(=O)N[C@@H](CC(=O)O)C(=O)N[C@@H](C(C)C)C(=O)N(C)[C@@H](Cc2ccccc2)C(=O)N[C@@H](CCC(=O)O)C(=O)N2C[C@H](O)C[C@@H]2C(=O)N[C@@H](Cc2c[nH]c3ccccc23)C(=O)N[C@@H](Cc2ccc(O)cc2)C(=O)N[C@@H](CCCN)C(=O)N[C@H](C(=O)NCC(N)=O)CSCC(=O)N[C@@H](Cc2cc(F)c(F)c(F)c2)C(=O)N(C)[C@@H](Cc2ccc(O)cc2)C(=O)N1C [Example 10638] ({CH2CO}-[Phe(3,4,5-F3)][NMeY][NMeNle][d(cisHyp)]DV[NMeF]E[d(cisHyp)]WY[Orn]CG-NH2; thioether N-13)
